{"source": "patent US6750009B2", "about": "(priority 2002, dated 2004)", "key": {"[1]": {"test_system": "RSV minigenome", "assay_type": "cell-based, Respiratory syncytia virus (RSV)"}, "[2]": {"test_system": "RSV minigenome", "assay_type": "cell-based, Respiratory syncytia virus (RSV)", "remark": "listed apart in the source"}, "[3]": {"test_system": "Sindbis replicon", "assay_type": "cell-based, Sindbis virus", "conditions": "for Sindbis Mixed Viral Replicon Culture % of Control (ave): Table 3"}, "[4]": {"test_system": "HCV replicon", "assay_type": "cell-based, hepatitis C virus"}, "[5]": {"test_system": "YFR replicon", "assay_type": "cell-based, yellow fever virus", "conditions": "for YFR Mixed Viral Replicon Culture % of Control (ave): co-cultured HCV/Sindbis/YFR replicons"}}, "note": "Values joined by “and” are separate entries in the source; they are usually repeats but may differ in a detail not shown here. Equal values may be shown once. Read-outs that look alike come from different tables or passages of the source.", "data": [{"molecule": "NC(=O)c1ncn([C@@H]2O[C@H](CO)[C@@H](O)[C@H]2O)n1", "note": "[Ribavirin, ribavirin]", "values": [{"measurement": "RSV Single Viral Culture % of Control (ave)", "setting": "[1]; Ribavirin 0.5 μ/ml", "value": "97.31 % of Control"}, {"measurement": "RSV Single Viral Culture % of Control (ave)", "setting": "[1]; Ribavirin 1 μ/ml", "value": "17.86 % of Control"}, {"measurement": "RSV Single Viral Culture % of Control (ave)", "setting": "[1]; Ribavirin 10 μ/ml", "value": "3.74 % of Control"}, {"measurement": "RSV Single Viral Culture % of Control (ave)", "setting": "[1]; Ribavirin 100 μ/ml", "value": "2.82 % of Control"}, {"measurement": "RSV Mixed Viral Culture % of Control (ave)", "setting": "[2]; Ribavirin 0.5 μ/ml", "value": "96.16 % of Control"}, {"measurement": "RSV Mixed Viral Culture % of Control (ave)", "setting": "[2]; Ribavirin 1 μ/ml", "value": "44.14 % of Control"}, {"measurement": "RSV Mixed Viral Culture % of Control (ave)", "setting": "[2]; Ribavirin 10 μ/ml", "value": "42.42 % of Control"}, {"measurement": "RSV Mixed Viral Culture % of Control (ave)", "setting": "[2]; Ribavirin 100 μ/ml", "value": "13.90 % of Control"}, {"measurement": "effect on Sindbis replicon replication", "setting": "[3]", "value": "did inhibit"}, {"measurement": "Sindbis Mixed Viral Replicon Culture % of Control (ave)", "setting": "[3]; Ribavirin 0.5 μg/ml", "value": "40.54 % of Control"}, {"measurement": "Sindbis Mixed Viral Replicon Culture % of Control (ave)", "setting": "[3]; Ribavirin 1 μg/ml", "value": "62.98 % of Control"}, {"measurement": "Sindbis Mixed Viral Replicon Culture % of Control (ave)", "setting": "[3]; Ribavirin 10 μg/ml", "value": "35.04 % of Control"}, {"measurement": "Sindbis Mixed Viral Replicon Culture % of Control (ave)", "setting": "[3]; Ribavirin 100 μg/ml", "value": "18.11 % of Control"}, {"measurement": "HCV Mixed Viral Replicon Culture % of Control (ave)", "setting": "[4]", "value": "100.37 % of Control and 101.51 % of Control and 99.75 % of Control and 110.22 % of Control"}, {"measurement": "effect on HCV replication", "setting": "[4]", "value": "no effect"}]}, {"molecule": "α-interferon [IFNα]", "values": [{"measurement": "RSV Single Viral Culture % of Control (ave)", "setting": "[1]; IFN-α 100 Units/ml", "value": "84.30 % of Control"}, {"measurement": "RSV Single Viral Culture % of Control (ave)", "setting": "[1]; IFN-α 1000 Units/ml", "value": "47.29 % of Control"}, {"measurement": "RSV Mixed Viral Culture % of Control (ave)", "setting": "[2]; IFN-α 100 Units/ml", "value": "84.30 % of Control"}, {"measurement": "RSV Mixed Viral Culture % of Control (ave)", "setting": "[2]; IFN-α 1000 Units/ml", "value": "77.80 % of Control"}, {"measurement": "inhibition of YFR replicon", "setting": "[5]; 100 u/ml IFNα, mixed viral replicon culture", "value": "> 81", "unit": "%"}, {"measurement": "YFR Mixed Viral Replicon Culture % of Control (ave)", "setting": "[5]; IFNα 1 Units/ml", "value": "41.47 % of Control"}, {"measurement": "YFR Mixed Viral Replicon Culture % of Control (ave)", "setting": "[5]; IFNα 10 Units/ml", "value": "26.09 % of Control"}, {"measurement": "YFR Mixed Viral Replicon Culture % of Control (ave)", "setting": "[5]; IFNα 100 Units/ml", "value": "18.64 % of Control"}, {"measurement": "inhibition of Sindbis replicon", "setting": "[3]", "value": "> 98", "unit": "%"}, {"measurement": "inhibition of HCV replicon", "setting": "[4]", "value": "> 91", "unit": "%"}]}]}
